Key:
CYPES = assay: Example I postemergence foliar-applied, greenhouse, direct seeded rice weeds; assay type: in vivo, Cyperus esculentus L.
From the text: Seeds or nutlets of the desired test plant species were planted in a soil matrix prepared by mixing a loam or sandy loam soil (e.g., 28.6 percent silt, 18.8 percent clay, and 52.6 percent sand, with a pH of about 5.8 and an organic matter content of about 1.8 percent) and calcareous grit in an 80 to 20 ratio. The soil matrix was contained in plastic pots with a volume of 1 quart and a surface area of 83.6 square centimeters (cm^2). When required to ensure good germination and healthy plants, a fungicide treatment and/or other chemical or physical treatment was applied. The plants were grown for 8-22 days in a greenhouse with an approximate 14 hr. photoperiod which was maintained at about 29° C. during the day and 26° C. during the night. Nutrients (Peters Excel® 15-5-15 5-Ca 2-Mg and iron chelate) were applied in the irrigation solution as needed and water was added on a regular basis. Supplemental lighting was provided with overhead metal halide 1000-Watt lamps as necessary. The plants were employed for testing when they reached the first through fourth true leaf stage.
Treatments consisted of the acid or esters of 4-amino-3-chloro-5-fluoro-6-(4-chloro-2-fluoro-3-methoxy-phenyl)pyridine-2-carboxylic acid (Compound A), each formulated as an SC (suspension concentrate), and various herbicidal components alone and in combination.
Other herbicidal components were applied on an acid equivalent (ae) or active ingredient (ai) basis and included acetyl coA carboxylase (ACCase)-inhibiting herbicides (cyclohexanedione and aryloxyphenoxypropionate chemical classes) cyhalofop-butyl formulated as Clincher® SF (285 gr ai/L EC), diclofop-methyl formulated as Hoelon® 3EC, fenoxaprop-p-ethyl+isoxadifen-ethyl formulated as RiceStar® HT (0.58 lb./gal EC), fenoxaprop-p-ethyl+mefenpyr diethyl formulated as Puma® IEC, metamifop formulated as Metamifop EC, haloxyfop-methyl formulated as Gallant Super®, fluazifop-p-butyl formulated as Fusilade® DX, quizalofop-p-ethyl formulated as Assure® II, profoxydim formulated as Aura® 20EC, clethodim applied as Intensity®, sethoxydim formulated as Poast®, and tralkoxydim formulated as Achieve®.
Treatment requirements were calculated based upon the rates being tested, the concentration of active ingredient or acid equivalent in the formulation, and a 12 mL application volume at a rate of 187 L/ha.
For treatments comprised of formulated compounds, measured amounts of compounds were placed individually in 25 mL glass vials and diluted in a volume of 1.25% (v/v) Agri-Dex® crop oil concentrated to obtain 12× stock solutions. […] Application solutions were prepared by adding an appropriate amount of each stock solution (e.g., 1 mL) and diluted to the appropriate final concentrations with the addition of 10 mL of an aqueous mixture of 1.25% (v/v) crop oil concentrate so that the final spray solutions contained 1.25+/−0.05% (v/v) crop oil concentrate.
All stock solutions and applications solutions were visually inspected for compound compatibility prior to application. Spray solutions were applied to the plant material with an overhead Mandel track sprayer equipped with a 8002E nozzles calibrated to deliver 187 L/ha over an application area of 0.503 m^2 at a spray height of 18 to 20 inches (46 to 50 cm) above average plant canopy height. Control plants were sprayed in the same manner with the solvent blank.
The treated plants and control plants were placed in a greenhouse as described above and watered by sub-irrigation to prevent wash-off of the test compounds. After approximately 3 weeks, the condition of the test plants as compared with that of the untreated plants was determined visually and scored on a scale of 0 to 100 percent where 0 corresponds to no injury or growth inhibition and 100 corresponds to complete kill. […]

SEBEX = assay: Example V post-emergence field trials in direct-seeded rice; assay type: in vivo, Sesbania exaltata; conditions: foliar, field trial Humphrey, Arkansas, USA
Procedure: Multiple field trials were conducted under commercial grower field conditions in Tolima, Colombia; Thessaloniki, Greece; Bianze and Copiano, Italy; and Humphrey, Ark., USA. Trials sites were located in commercially grown fields of direct-seeded rice (Oryza sativa) using standard herbicide small plot research methodology. Plots varied from 2 to 3 meter (m)×5 to 8 m (width×length) with 4 replicates per treatment. The rice crop was grown using normal cultural practices for fertilization, seeding, watering, flooding and maintenance to ensure good growth of the crop and the weeds.
All treatments in the field trials were applied using a backpack compressed air/gas sprayer with flat fan nozzles (80° or 110°) calibrated to apply 187 to 300 L/ha spray volume at approximately 200-400 kPa nozzle pressure. Commercially available products of cyhalofop-butyl (Clincher 180EC, Clincher 200EC, and Clincher SF (285 gr ai/L EC)) were mixed in water at appropriate formulated product rates to achieve the desired rates based on a unit area of application (hectare) to achieve the desired rates as shown. […] Visual weed control was scored on a scale of 0 to 100 percent where 0 corresponds to no injury and 100 corresponds to complete kill.
All treatment results, both for the single product and mixtures, are an average of 4 replicates. The trial sites had naturally occurring populations of weeds. The weed spectrum included, but was not limited to, rice flatsedge (Cyperus iria, CYPIR); smallflower umbrellaplant (Cyperus difformis, CYPDI), junglerice (Echinochloa colona, ECHCO), barnyardgrass (Echinochloa crus-galli, ECHCG); multiple Echinochloa species in the same field (ECHSS), grasslike fimbristylis (Fimbristylis miliacea, FIMMI); ricefield bulrush (Schoenoplectus mucronatus, SCPMU) and hemp Sesbania (Sesbania exaltata, SEBEX). All synergistic interactions were significant at the […] level.

Structure (SMILES)	Visual Weed Control (%) - 20 DAA CYPES Obs (CYPES; 4.38 gae/ha) [%]	Visual Weed Control (%) - 22 DAA CYPES Obs (CYPES; 4.38 gae/ha) [%]	Visual Weed Control (%) - 20 DAA CYPES Obs (CYPES; 8.75 gae/ha) [%]	Visual Weed Control (%) - 22 DAA CYPES Obs (CYPES; 8.75 gae/ha) [%]	Visual Weed Control (%) - 7 DAA SEBEX Obs (SEBEX; 280 gai/ha) [%]	Visual Weed Control (%) - 7 DAA SEBEX Obs (SEBEX; 24 gae/ha) [%]	Visual Weed Control (%) - 7 DAA SEBEX Obs (SEBEX; 32 gae/ha) [%]	Visual Weed Control (%) - 20 DAA CYPES Obs (CYPES; 8 gae/ha) [%]	Visual Weed Control (%) - 20 DAA CYPES Obs (CYPES; 16 gae/ha) [%]	Visual Weed Control (%) - 20 DAA CYPES Obs (CYPES; 17.5 gae/ha) [%]
COc1c(Cl)ccc(-c2nc(C(=O)O)c(Cl)c(N)c2F)c1F [Compound A Acid, 4-amino-3-chloro-6-(4-chloro-2-fluoro-3-methoxyphenyl)-5-fluoropyridine-2-carboxylic acid]	30	50	70	75	–	–	–	–	–	–
CCCCOC(=O)[C@@H](C)Oc1ccc(Oc2ccc(C#N)cc2F)cc1 [Cyhalofop-butyl, butyl(2R)-2-[4-(4-cyano-2-fluorophenoxy)phenoxy]propanoate, reference compound]	–	–	–	–	0	–	–	–	–	–
COc1c(Cl)ccc(-c2nc(C(=O)OCc3ccccc3)c(Cl)c(N)c2F)c1F [Compound A Benzyl Ester, benzyl ester of 4-amino-3-chloro-5-fluoro-6-(4-chloro-2-fluoro-3-methoxy-phenyl)pyridine-2-carboxylic acid]	70	–	80	–	–	80	78	0	75	95

From US9232796B2, “Herbicidal compositions comprising 4-amino-3-chloro-5-fluoro-6-(4-chloro-2-fluoro-3-methoxyphenyl) pyridine-2-carboxylic acid or a derivative thereof and acetyl-CoA carboxylase (ACCase) inhibitors” (DOW AGROSCIENCES LLC, priority 2012, dated 2016)
